The record followed here is BindingDB's records for doi:10.1021/jm030146j (Merck Research Laboratories, 2003).

Some results are limits rather than exact numbers.

Chain of Integrin alpha-IIb/beta-3 (P05106 27-788 limits assumed): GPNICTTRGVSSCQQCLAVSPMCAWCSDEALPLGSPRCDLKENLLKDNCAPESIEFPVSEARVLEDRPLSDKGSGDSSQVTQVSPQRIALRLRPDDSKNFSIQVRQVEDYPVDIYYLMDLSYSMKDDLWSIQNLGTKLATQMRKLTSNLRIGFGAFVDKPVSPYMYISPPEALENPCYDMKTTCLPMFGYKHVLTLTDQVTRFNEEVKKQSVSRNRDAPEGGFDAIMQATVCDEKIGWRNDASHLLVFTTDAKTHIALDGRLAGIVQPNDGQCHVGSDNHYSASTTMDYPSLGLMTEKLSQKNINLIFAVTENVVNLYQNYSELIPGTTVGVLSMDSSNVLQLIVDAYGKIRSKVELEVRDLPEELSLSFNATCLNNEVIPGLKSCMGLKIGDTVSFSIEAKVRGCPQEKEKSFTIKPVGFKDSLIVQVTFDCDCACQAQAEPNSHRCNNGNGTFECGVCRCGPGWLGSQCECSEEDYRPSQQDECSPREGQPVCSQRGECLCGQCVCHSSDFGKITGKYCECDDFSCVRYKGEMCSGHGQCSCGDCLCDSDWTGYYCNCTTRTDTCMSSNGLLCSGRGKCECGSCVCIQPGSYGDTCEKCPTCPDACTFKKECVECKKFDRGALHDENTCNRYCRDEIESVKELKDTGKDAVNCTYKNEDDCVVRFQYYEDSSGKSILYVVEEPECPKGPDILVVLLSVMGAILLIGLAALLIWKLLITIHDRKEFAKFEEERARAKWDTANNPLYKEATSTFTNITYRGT
Chain of Integrin alpha-IIb/beta-3 (P08514 32-887 limits assumed): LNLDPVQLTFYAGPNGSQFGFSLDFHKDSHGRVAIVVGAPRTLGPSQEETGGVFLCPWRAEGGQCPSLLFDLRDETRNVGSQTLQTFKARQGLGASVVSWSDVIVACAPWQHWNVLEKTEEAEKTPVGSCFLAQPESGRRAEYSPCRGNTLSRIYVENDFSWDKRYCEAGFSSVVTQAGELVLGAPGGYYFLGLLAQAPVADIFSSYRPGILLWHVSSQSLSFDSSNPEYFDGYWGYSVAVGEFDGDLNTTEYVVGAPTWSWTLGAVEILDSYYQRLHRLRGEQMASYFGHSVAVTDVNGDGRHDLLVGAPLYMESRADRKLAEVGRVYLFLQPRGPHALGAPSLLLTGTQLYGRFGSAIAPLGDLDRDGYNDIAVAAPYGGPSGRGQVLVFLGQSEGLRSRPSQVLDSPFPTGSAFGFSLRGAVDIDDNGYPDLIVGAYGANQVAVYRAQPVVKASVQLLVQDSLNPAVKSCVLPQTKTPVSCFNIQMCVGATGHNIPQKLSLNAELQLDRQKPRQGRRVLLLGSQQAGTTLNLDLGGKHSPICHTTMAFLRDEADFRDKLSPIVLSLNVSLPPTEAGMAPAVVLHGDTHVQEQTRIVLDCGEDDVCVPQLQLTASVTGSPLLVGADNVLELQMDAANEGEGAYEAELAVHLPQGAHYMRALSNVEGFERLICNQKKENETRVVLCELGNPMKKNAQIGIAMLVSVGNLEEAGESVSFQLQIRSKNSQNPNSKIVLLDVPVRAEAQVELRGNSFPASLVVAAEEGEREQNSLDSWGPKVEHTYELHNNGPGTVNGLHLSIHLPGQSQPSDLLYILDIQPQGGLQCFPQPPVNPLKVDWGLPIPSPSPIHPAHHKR
Chain of Integrin alpha-IIb/beta-3 (P08514 891-1039 limits assumed): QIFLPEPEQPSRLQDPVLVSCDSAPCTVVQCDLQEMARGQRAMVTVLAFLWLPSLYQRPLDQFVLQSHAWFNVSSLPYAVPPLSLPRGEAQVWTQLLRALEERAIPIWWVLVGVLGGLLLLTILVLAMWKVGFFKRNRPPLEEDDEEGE

The experiment has as its target Integrin alpha-IIb/beta-3 (Homo sapiens, UniProt P08514+P05106). Kind of experiment: Inhibition of human alphaIIb-beta3 integrin in platelet aggregation assay.
For `O=C(O)CC(NC(=O)CCCCc1ccc2c(n1)NCCC2)c1cncnc1` (stereo not given) [3-Pyrimidin-5-yl-3-(5-5,6,7,8-tetrahydro-[1,8]naphthyridin-2-yl-pentanoylamino)-propionic acid], the half-inhibitory concentration (IC50) was more than 10000 nM.
Under `O=C(NC[C@H](NS(=O)(=O)c1ccccc1)C(=O)O)c1ccc(N2CCNCC2)cc1` [2-((S)-Benzenesulfonylamino)-3-(4-piperazin-1-yl-benzoylamino)-propionic acid] stands 16 nM; under `CC1(C)[C@@H]2CC[C@@]1(CS(=O)(=O)N[C@@H](CNC(=O)c1ccc(CCc3ccc4c(n3)NCCC4)cc1)C(=O)O)C(=O)C2` [2-((S)-(1R,7S)-7,7-Dimethyl-2-oxo-bicyclo[2.2.1]hept-1-ylmethanesulfonylamino)-3-{4-[2-(5,6,7,8-tetrahydro-[1,8]naphthyridin-2-yl)-ethyl]-benzoylamino}-propionic acid], 157 nM; under `CNc1cccc(CCOc2ccc3c(c2)CN(CC(F)(F)F)C(=O)[C@H](CC(=O)O)C3)n1` [[(S)-8-[2-(6-Methylamino-pyridin-2-yl)-ethoxy]-3-oxo-2-(2,2,2-trifluoro-ethyl)-2,3,4,5-tetrahydro-1H-benzo[c]azepin-4-yl]-acetic acid], more than 10000 nM.
On to `O=C(O)C[C@H](NC(=O)CN1CC[C@H](CCc2ccc3c(n2)NCCC3)C1=O)c1cccnc1` [3-(2-{(S)-2-Oxo-3-[2-(5,6,7,8-tetrahydro-[1,8]naphthyridin-2-yl)-ethyl]-pyrrolidin-1-yl}-acetylamino)-3-(S)-pyridin-3-yl-propionic acid], for which the IC50 is more than 10000 nM.
